Results as given in patent publication US20240180880A1, “METHODS OF USING EHMT2 INHIBITORS IN TREATING OR PREVENTING BLOOD DISORDERS” (Epizyme, Inc., priority 2017, published 2024).
pIC50: −log10 of the molar value. Where two headings read alike, the source gives them in different places.

Tested on: 284 cell lines
Test: cells
Protocol: A screen of 284 cell lines to assess the antiproliferative effect of EHMT2 inhibition was conducted by treating cell lines in 384-well format with a half-log step dilutions of Compound 205 over 10 concentrations with a maximum concentration of 0.1% v/v DMSO. Cells were plated on Day 0 and treated with compound on Day 1. Culture medium was replaced on day 7 and cells redosed. After 10-day incubation, cells were fixed and stained with nuclear dye. Automated fluorescence microscopy was carried out using a Molecular Devices ImageXpress Micro XL high-content imager, and images were collected with a 4× objective. 16-bit TIFF images were acquired and analyzed with MetaXpress 5.1.0.41 software. Cell proliferation was measured by the fluorescence intensity of the incorporated nuclear dye. Cell count IC50 is the test compound concentration at 50% of maximal response of the untreated control.

Question: With CNc1cc(C)nc(Nc2ccc(OC)c(OCCCN3CCCC3)c2)n1 [Compound 205] as the molecule, how does the pIC50 (BM-1604, read-out: Cell Count IC50, BM-1604, Prostate) read?
Answer: < 5.00

Question: And the pIC50 (C32TG, read-out: Cell Count IC50, C32TG, Skin, Melanoma)?
Answer: 5.00 to 6.00

Question: And the pIC50 (CEM/C1, read-out: Cell Count IC50, CEM-C1, Hematopoietic, Leukemia)?
Answer: < 5.00

Question: And the pIC50 (CML-T1, read-out: Cell Count IC50, CML-T1, Hematopoietic, Leukemia)?
Answer: 5.00 to 6.00

Question: What about the pIC50 (D341 Med, read-out: Cell Count IC50, D341 Med, Central Nervous System, Medulloblastoma) of the same molecule?
Answer: 5.00 to 6.00

Question: What about the pIC50 (HUH-6-clone5, read-out: Cell Count IC50, HUH-6 Clone 5, Liver) of the same molecule?
Answer: 5.00 to 6.00

Question: What about the pIC50 (Homo sapiens, 22Rv1, read-out: Cell Count IC50, 22Rv1, Prostate) of the same molecule?
Answer: 5.00 to 6.00

Question: And the pIC50 (Homo sapiens, 639-V, read-out: Cell Count IC50, 639-V, Bladder)?
Answer: < 5.00

Question: And the pIC50 (Homo sapiens, 647-V, read-out: Cell Count IC50, 647-V, Bladder)?
Answer: 5.00 to 6.00

Question: What about the pIC50 (Homo sapiens, 769-P, read-out: Cell Count IC50, 769-P, Kidney) of the same molecule?
Answer: 5.00 to 6.00

Question: What about the pIC50 (Homo sapiens, 786-0, read-out: Cell Count IC50, 786-O, Kidney) of the same molecule?
Answer: < 5.00

Question: And the pIC50 (Homo sapiens, A101D, read-out: Cell Count IC50)?
Answer: 5.00 to 6.00

Question: And the pIC50 (Homo sapiens, A 172, read-out: Cell Count IC50, A172, Central Nervous System, Glioma)?
Answer: 5.00 to 6.00

Question: And the pIC50 (Homo sapiens, A204, read-out: Cell Count IC50, A204, Soft & Connective Tissue, Sarcoma)?
Answer: 7.00 to 8.00

Question: What about the pIC50 (Homo sapiens, A253, read-out: Cell Count IC50, A-253, Head and Neck) of the same molecule?
Answer: < 5.00

Question: What about the pIC50 (Homo sapiens, A498, read-out: Cell Count IC50, A498, Kidney) of the same molecule?
Answer: 5.00 to 6.00

Question: And the pIC50 (Homo sapiens, A549, read-out: Cell Count IC50, A549, Lung, NSCLC)?
Answer: < 5.00

Question: What about the pIC50 (Homo sapiens, A673, read-out: Cell Count IC50, A-673, Soft & Connective Tissue, Sarcoma) of the same molecule?
Answer: < 5.00

Question: And the pIC50 (Homo sapiens, A704, read-out: Cell Count IC50, A-704, Kidney)?
Answer: 5.00 to 6.00

Question: What about the pIC50 (Homo sapiens, A2058, read-out: Cell Count IC50, A2058, Skin, Melanoma) of the same molecule?
Answer: 5.00 to 6.00

Question: What about the pIC50 (Homo sapiens, A-375, read-out: Cell Count IC50, A375, Skin, Melanoma) of the same molecule?
Answer: 5.00 to 6.00

Question: And the pIC50 (Homo sapiens, A-427, read-out: Cell Count IC50, A427, Lung, NSCLC)?
Answer: 5.00 to 6.00

Question: And the pIC50 (Homo sapiens, A-431, read-out: Cell Count IC50, A431, Skin, Head and Neck)?
Answer: 5.00 to 6.00

Question: And the pIC50 (Homo sapiens, ACHN, read-out: Cell Count IC50, ACHN, Kidney)?
Answer: 5.00 to 6.00

Question: What about the pIC50 (Homo sapiens, AN3-CA, read-out: Cell Count IC50, AN3 CA, Female GU, Uterus) of the same molecule?
Answer: < 5.00

Question: What about the pIC50 (Homo sapiens, ARH-77, read-out: Cell Count IC50, ARH-77, Hematopoietic, Myeloma) of the same molecule?
Answer: 5.00 to 6.00

Question: And the pIC50 (Homo sapiens, ASPC1, read-out: Cell Count IC50, AsPC-1, Pancreas)?
Answer: 5.00 to 6.00

Question: What about the pIC50 (Homo sapiens, BE(2)-C, read-out: Cell Count IC50, BE(2)C, Central Nervous System, Neuroblastoma) of the same molecule?
Answer: < 5.00

Question: What about the pIC50 (Homo sapiens, BFTC-905, read-out: Cell Count IC50, BFTC-905, Bladder) of the same molecule?
Answer: 7.00 to 8.00

Question: And the pIC50 (Homo sapiens, BHT-101, read-out: Cell Count IC50, BHT-101, Endocrine, Thyroid)?
Answer: 5.00 to 6.00

Question: What about the pIC50 (Homo sapiens, BPH-1, read-out: Cell Count IC50, BPH1, Prostate) of the same molecule?
Answer: < 5.00

Question: What about the pIC50 (Homo sapiens, BT-20, read-out: Cell Count IC50, BT20, Breast) of the same molecule?
Answer: < 5.00

Question: And the pIC50 (Homo sapiens, BT-474, read-out: Cell Count IC50, BT474, Breast)?
Answer: 5.00 to 6.00

Question: What about the pIC50 (Homo sapiens, BT-549, read-out: Cell Count IC50, BT-549, Breast) of the same molecule?
Answer: < 5.00

Question: And the pIC50 (Homo sapiens, BV-173, read-out: Cell Count IC50, BV-173, Hematopoietic, Leukemia)?
Answer: 5.00 to 6.00

Question: What about the pIC50 (Homo sapiens, BXPC-3, read-out: Cell Count IC50, BxPC-3, Pancreas) of the same molecule?
Answer: 5.00 to 6.00

Question: What about the pIC50 (Homo sapiens, BeWo, read-out: Cell Count IC50, BeWo, Placenta) of the same molecule?
Answer: < 5.00

Question: And the pIC50 (Homo sapiens, C-4-II, read-out: Cell Count IC50, C-4 II, Female GU, Cervix)?
Answer: < 5.00

Question: What about the pIC50 (Homo sapiens, C-33-A, read-out: Cell Count IC50, C-33A, Female GU, Cervix) of the same molecule?
Answer: < 5.00

Question: And the pIC50 (Homo sapiens, CA46, read-out: Cell Count IC50, CA46, Hematopoietic, Lymphoma)?
Answer: 5.00 to 6.00

Question: And the pIC50 (Homo sapiens, CAKI-1, read-out: Cell Count IC50, Caki-1, Kidney)?
Answer: 5.00 to 6.00

Question: What about the pIC50 (Homo sapiens, CAKI-2, read-out: Cell Count IC50, Caki-2, Kidney) of the same molecule?
Answer: 5.00 to 6.00

Question: And the pIC50 (Homo sapiens, CAL-27, read-out: Cell Count IC50, Cal 27, Head and Neck)?
Answer: 5.00 to 6.00

Question: And the pIC50 (Homo sapiens, CAL-62, read-out: Cell Count IC50, CAL-62, Endocrine, Thyroid)?
Answer: < 5.00

Question: What about the pIC50 (Homo sapiens, CAMA-1, read-out: Cell Count IC50, CAMA-1, Breast) of the same molecule?
Answer: 5.00 to 6.00

Question: What about the pIC50 (Homo sapiens, CAPAN-1, read-out: Cell Count IC50, Capan-1, Pancreas) of the same molecule?
Answer: < 5.00

Question: What about the pIC50 (Homo sapiens, CCF-STTG1, read-out: Cell Count IC50, CCF-STTG1, Central Nervous System, Glioma) of the same molecule?
Answer: 5.00 to 6.00

Question: And the pIC50 (Homo sapiens, CCRF-CEM, read-out: Cell Count IC50, CCRFCEM, Hematopoietic, Leukemia)?
Answer: < 5.00

Question: What about the pIC50 (Homo sapiens, CFPAC-1, read-out: Cell Count IC50, CFPAC-1, Pancreas) of the same molecule?
Answer: < 5.00

Question: What about the pIC50 (Homo sapiens, CGTH-W-1, read-out: Cell Count IC50, CGTH-W-1, Endocrine, Thyroid) of the same molecule?
Answer: < 5.00

Question: And the pIC50 (Homo sapiens, CHL-1, read-out: Cell Count IC50, CHL-1, Skin, Melanoma)?
Answer: < 5.00

Question: And the pIC50 (Homo sapiens, CHP-212, read-out: Cell Count IC50, CHP-212, Central Nervous System, Neuroblastoma)?
Answer: 6.00 to 7.00

Question: What about the pIC50 (Homo sapiens, COLO 201, read-out: Cell Count IC50, Colo 201, Colon) of the same molecule?
Answer: 5.00 to 6.00

Question: And the pIC50 (Homo sapiens, COLO 205, read-out: Cell Count IC50, Colo 205, Colon)?
Answer: 5.00 to 6.00

Question: And the pIC50 (Homo sapiens, COLO 320DM, read-out: Cell Count IC50, Colo 320DM, Colon)?
Answer: < 5.00

Question: What about the pIC50 (Homo sapiens, COLO-320-HSR, read-out: Cell Count IC50, Colo 320 HSR, Colon) of the same molecule?
Answer: < 5.00

Question: What about the pIC50 (Homo sapiens, COLO-829, read-out: Cell Count IC50, COLO 829, Skin, Melanoma) of the same molecule?
Answer: 5.00 to 6.00

Question: What about the pIC50 (Homo sapiens, COR-L23, read-out: Cell Count IC50, COR-L23, Lung, NSCLC) of the same molecule?
Answer: 5.00 to 6.00

Question: What about the pIC50 (Homo sapiens, COR-L105, read-out: Cell Count IC50, COR-L105, Lung, NSCLC) of the same molecule?
Answer: 5.00 to 6.00

Question: And the pIC50 (Homo sapiens, Ca-Ski, read-out: Cell Count IC50, Ca Ski, Female GU, Cervix)?
Answer: 6.00 to 7.00

Question: And the pIC50 (Homo sapiens, Calu-1, read-out: Cell Count IC50, Calu1, Lung, NSCLC)?
Answer: < 5.00

Question: What about the pIC50 (Homo sapiens, Calu-6, read-out: Cell Count IC50, Calu6, Lung, NSCLC) of the same molecule?
Answer: < 5.00

Question: And the pIC50 (Homo sapiens, Caov-3, read-out: Cell Count IC50, CaOV3, Female GU, Ovary)?
Answer: 5.00 to 6.00

Question: What about the pIC50 (Homo sapiens, Capan-2, read-out: Cell Count IC50, Capan-2, Pancreas) of the same molecule?
Answer: < 5.00

Question: What about the pIC50 (Homo sapiens, ChaGo-K-1, read-out: Cell Count IC50, ChaGoK1, Lung, NSCLC) of the same molecule?
Answer: < 5.00

Question: And the pIC50 (Homo sapiens, D283 Med, read-out: Cell Count IC50, D283 Med, Central Nervous System, Medulloblastoma)?
Answer: 5.00 to 6.00

Question: What about the pIC50 (Homo sapiens, DBTRG-05MG, read-out: Cell Count IC50, DBTRG-05MG, Central Nervous System, Glioma) of the same molecule?
Answer: 5.00 to 6.00

Question: And the pIC50 (Homo sapiens, DLD-1, read-out: Cell Count IC50, DLD-1, Colon)?
Answer: < 5.00

Question: What about the pIC50 (Homo sapiens, DMS-53, read-out: Cell Count IC50, DMS53, Lung, SCLC) of the same molecule?
Answer: 6.00 to 7.00

Question: And the pIC50 (Homo sapiens, DMS-114, read-out: Cell Count IC50, DMS114, Lung, SCLC)?
Answer: 5.00 to 6.00

Question: And the pIC50 (Homo sapiens, DOHH-2, read-out: Cell Count IC50, DOHH-2, Hematopoietic, Lymphoma)?
Answer: 5.00 to 6.00
